# Assay results: patent publication US9771369B2, “Compounds and methods for kinase modulation, and indications therefor” (Plexxikon Inc., priority 2014, dated 2017)
# Legend:
# [1] = target: c-kit mutant D816V (Homo sapiens (Human), UniProt P10721, D816V/DEL694-753); assay: c-Kit mutant D816V biochemical assay (AlphaScreen kinase activity)
# Protocol: The c-kit mutant D816V (or kinase domain thereof) is an active kinase in AlphaScreen. IC50 values are determined with respect to inhibition of c-Kit mutant D816V kinase activity, where inhibition of phosphorylation of a peptide substrate is measured as a function of compound concentration. Compounds to be tested were dissolved in DMSO to a concentration of 30 mM. These were diluted […] of DMSO (4 mM) and 1 μl was added to an assay plate. These were then serially diluted 1:3 (50 μl to […] DMSO) for a total of 8 points. Plates were prepared such that each kinase reaction is […] in 1× kinase buffer (25 mM HEPES, pH 7.2, 8 mM MgCl2, 2 mM MnCl2, 50 mM NaCl, 0.01% Brij, 1 mM DTT, 0.01% BSA), 5% DMSO and 10 μM ATP. Substrate was 30 nM biotin-(E4Y)10 (EMD Millipore, Cat#12-440). C-kit mutant D816V kinase was at 0.75 ng per sample. After incubation of the kinase reaction for 30 minutes at room temperature, 5 μl of donor beads (Streptavidin coated beads (Perkin Elmer Life Science) final concentration 7.5 μg/ml) in stop buffer (25 mM Hepes pH 7.5, 100 mM EDTA, 0.01% BSA) was added, the sample was mixed and incubated for 30 minutes at room temperature before adding […] of acceptor beads (PY30 coated beads (Perkin Elmer Life Science) final concentration 7.5 μg/ml) in stop buffer. The samples were incubated for 60 minutes at room temperature and the signal per well was read on EnVision reader. Phosphorylated substrate results in binding of the PY30 antibody and association of the donor and acceptor beads such that signal correlates with kinase activity. The signal vs. compound concentration was used to determine the IC50.
# Recombinant c-kit mutant D816V (residues 551-934, kinase insertion domain residues 694-753 deleted) with a 6×-histidine N-terminal tag (SEQ ID NO: 3) was expressed in E. coli Arctic Express (DE3) RIL (Stratagene). Cells were grown in Terrific Broth (TB) media to an OD600 of 0.6 at 37° C. at which temperature was reduced to 10° C., protein was induced with 1.0 mM IPTG for 18 hours and harvested by centrifugation at 8000×g for 30 minutes. Cells were re-suspended in 0.1M KPO4 pH 8.0, 250 mM NaCl, 10% Glycerol, 0.75% NP-40, 25 mM Imidazole, 5 mM BME with 0.2 mg/ml Lysosyme, 2.0 mM PMSF, 25 μg/ml DNAse I, incubated in ice for 30 minutes and lyzed with a cell disruptor (MicroFluidics). The lysate was clarified by centrifugation at 30,000×g for 2 hours. The protein was captured with Talon resin (Clontech). Contaminating proteins were washed off with 25 mM Tris-HCl pH 8.3, 250 mM NaCl, 15% Glycerol, 1% Triton X-100, and protein eluted using 100 mM EDTA. The protein was further purified using Gel Filtration column 26/600 Superdex 300 (GE) in 50 mM Tris-HCl , pH 8.0, 250 mM NaCl, 15% Glycerol, 5 mM BME. The protein was aliquoted and flash-frozen in liquid Nitrogen.
# [2] = system: BaF3-FL KIT D816V or BaF3-FL KIT V560G/D816V cell line; assay: Cell-based assays of c-Kit mutant kinase activity (cell proliferation, ATPlite); settings: at least one of the c-kit cell assays of Example 7
# Protocol: The c-Kit mutant D816V inhibitors were assessed using an engineered BaF3-FL KIT D816V or BaF3-FL KIT V560G/D816V cell line. The BaF3-FL KIT D816V cell lines were created by introduction of KIT mutant (D816V) full length constructs that render the cells dependent on the introduced kinase for growth. Inhibitors of c-Kit mutant D816V kinase reduce or eliminate the mediated c-kit mutant D816V kinase activation, resulting in reduced cell proliferation of the BaF3-FL Kit mutant D816V cells. This inhibition is measured by the effect of compound concentration on cell growth to assess IC50 values. BaF3-FL KIT D816V cells were seeded at 1×10^4 cells per well of a 96 well cell culture plate in 50 μl of cell culture medium of RPMI Medium 1× (Invitrogen #11875-093) supplemented with 10% FBS (Invitrogen #10438), 1% Non Essential Amino Acids (Invitrogen #11140), 1% Penicillin Streptomycin (Invitrogen #15140), 1% L-Glutamine (Invitrogen #25030-081). Compounds were dissolved in DMSO at a concentration of 5 mM and were serially diluted 1:3 for a total of eight points and added to the cells to a final maximum concentration of 10 μM in 100 μl cell culture medium (final concentration 0.2% DMSO). Cells were also treated with Dasatinib as a positive control. The cells were incubated at 37° C., 5% CO2 for three days. ATPlite Buffer (Perkin Elmer #6016739) and substrate were equilibrated to room temperature, and enzyme/substrate Recombinant Firefly Luciferase/D-Luciferin was reconstituted. The cell plates were equilibrated to room temperature for 30 minutes, then lysed by addition of 25 μL per well of the ATPlite Reagent. The plate was mixed for 5 minutes on a plate shaker to lyse the cells. The plates were read on a Tecan Safire using Luminescence protocol modified to read 0.1s per well. The luminescence reading assesses the ATP content, which correlates directly with cell number such that the reading as a function of compound concentration is used to determine the IC50 value.
# Plasmids P75635 and P75565 were engineered for mammalian cell expression. In both plasmids, full-length human v-kit Hardy-Zuckerman 4 feline sarcoma viral oncogene homolog gene (NCBI accession NM_000222, KIT, residues M1-V976) was subcloned into the pCI-Neo vector (Promega E1841). Plasmid P75635 contains the mutation of residue Aspartic acid 816 to Valine. Plasmid P75565 contains the double mutation of residues Valine 560 to Glycine and Aspartic acid 816 to Valine. The pCI-neo Mammalian Expression Vector carries the human cytomegalovirus (CMV) immediate-early enhancer/promoter region to promote constitutive expression of KIT and contains the neomycin phosphotransferase gene, a selectable marker.
# It is understood that the results of these assays may vary as assay conditions are varied. Inhibition levels determined under the conditions described herein represent a relative activity for the compounds tested under the specific conditions employed. The cell based assays are likely to show variability due to the complexity of the system and the sensitivity thereof to any changes in the assay conditions. […] In some instances, the compounds were not tested in all of the assays, or assay results were not valid.
# Chain of c-kit mutant D816V (P10721 other isoform, or with tags, fused parts or gaps D816V/del 694-753): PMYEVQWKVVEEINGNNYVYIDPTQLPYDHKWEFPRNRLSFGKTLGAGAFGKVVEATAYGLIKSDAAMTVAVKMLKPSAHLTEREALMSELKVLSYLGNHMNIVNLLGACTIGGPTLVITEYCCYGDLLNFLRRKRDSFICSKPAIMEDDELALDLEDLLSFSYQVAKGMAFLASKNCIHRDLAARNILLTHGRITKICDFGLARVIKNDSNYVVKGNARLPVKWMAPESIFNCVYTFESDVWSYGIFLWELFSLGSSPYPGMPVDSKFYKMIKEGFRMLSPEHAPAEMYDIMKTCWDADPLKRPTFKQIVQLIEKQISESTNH
SMILES,IC50 [1] [µM],IC50 [2] [µM]
"COc1cc(-c2cc3c(N4CCC(c5nc(C)c(-c6ccc(F)cc6)[nH]5)CC4)ncnc3[nH]2)ccn1 [P-3007, 4-[4-[5-(4-fluorophenyl)-4-methyl-1H-imidazol-2-yl]-1-piperidyl]-6-(2-methoxy-4-pyridyl)-7H-pyrrolo[2,3-d]pyrimidine]",0.0001 to 1,< 10
"COc1cc(-c2cc3c(N4CCC(c5nc(C6CC6)c(-c6ccccc6)[nH]5)CC4)ncnc3[nH]2)ccn1 [P-3008, 4-[4-(4-cyclopropyl-5-phenyl-1H-imidazol-2-yl)-1-piperidyl]-6-(2-methoxy-4-pyridyl)-7H-pyrrolo[2,3-d]pyrimidine]",0.0001 to 1,< 10
"Fc1ccc(-c2cc3c(N4CCC(c5nc(C6CC6)c(-c6ccccc6)[nH]5)CC4)ncnc3[nH]2)cc1 [P-3009, 4-[4-(4-cyclopropyl-5-phenyl-1H-imidazol-2-yl)-1-piperidyl]-6-(4-fluorophenyl)-7H-pyrrolo[2,3-d]pyrimidine]",0.0001 to 1,< 10
"N#Cc1ccc(-c2cc3c(N4CCC(c5nc(C6CC6)c(-c6ccccc6)[nH]5)CC4)ncnc3[nH]2)cc1 [P-3010, 4-[4-[4-(4-cyclopropyl-5-phenyl-1H-imidazol-2-yl)-1-piperidyl]-7H-pyrrolo[2,3-d]pyrimidin-6-yl]benzonitrile]",0.0001 to 1,< 10
"Cc1nc(C2CCN(c3ncnc4[nH]c(-c5ccc(F)cc5)cc34)CC2)[nH]c1-c1cccc(OC(F)(F)F)c1 [P-3011, 6-(4-fluorophenyl)-4-[4-[4-methyl-5-[3-(trifluoromethoxy)phenyl]-1H-imidazol-2-yl]-1-piperidyl]-7H-pyrrolo[2,3-d]pyrimidine]",0.0001 to 1,< 10
"CCOc1cc(-c2[nH]c(C3CCN(c4ncnc5[nH]c(-c6ccc(C#N)cc6)cc45)CC3)nc2C)ccc1C [P-3095, 4-[4-[4-[5-(3-ethoxy-4-methyl-phenyl)-4-methyl-1H-imidazol-2-yl]-1-piperidyl]-7H-pyrrolo[2,3-d]pyrimidin-6-yl]benzonitrile]",0.0001 to 1,< 10
"CCOc1cc(-c2[nH]c(C3CCN(c4ncnc5[nH]c(-c6ccnc(OC)c6)cc45)CC3)nc2C)ccc1C [P-3096, 4-[4-[5-(3-ethoxy-4-methyl-phenyl)-4-methyl-1H-imidazol-2-yl]-1-piperidyl]-6-(2-methoxy-4-pyridyl)-7H-pyrrolo[2,3-d]pyrimidine]",0.0001 to 1,< 10
"Cc1nc(C2CCN(c3ncnc4[nH]c(-c5ccnc(C(F)(F)F)c5)cc34)CC2)[nH]c1-c1ccccc1 [P-3097, 4-[4-(4-methyl-5-phenyl-1H-imidazol-2-yl)-1-piperidyl]-6-[2-(trifluoromethyl)-4-pyridyl]-7H-pyrrolo[2,3-d]pyrimidine]",0.0001 to 1,< 10
"Cc1nc(C2CCN(c3ncnc4[nH]c(-c5cccc(C(F)(F)F)c5)cc34)CC2)[nH]c1-c1ccccc1 [P-3098, 4-[4-(4-methyl-5-phenyl-1H-imidazol-2-yl)-1-piperidyl]-6-[3-(trifluoromethyl)phenyl]-7H-pyrrolo[2,3-d]pyrimidine]",0.0001 to 1,< 10
"CCOc1ccc(-c2[nH]c(C3(C)CCN(c4ncnc5[nH]c(C)cc45)CC3)nc2C)cc1C [P-3099, 4-[4-[5-(4-ethoxy-3-methyl-phenyl)-4-methyl-1H-imidazol-2-yl]-4-methyl-1-piperidyl]-6-methyl-7H-pyrrolo[2,3-d]pyrimidine]",0.0001 to 1,< 10
"CCc1ccc(-c2[nH]c(C3(C)CCN(c4ncnc5[nH]c(C)cc45)CC3)nc2C)cc1 [P-3101, 4-[4-[5-(4-ethylphenyl)-4-methyl-1H-imidazol-2-yl]-4-methyl-1-piperidyl]-6-methyl-7H-pyrrolo[2,3-d]pyrimidine]",0.0001 to 1,< 10
"COc1ccc(-c2[nH]c(C3(C)CCN(c4ncnc5[nH]c(C)cc45)CC3)nc2C)cc1C [P-3102, 4-[4-[5-(4-methoxy-3-methyl-phenyl)-4-methyl-1H-imidazol-2-yl]-4-methyl-1-piperidyl]-6-methyl-7H-pyrrolo[2,3-d]pyrimidine]",0.0001 to 1,< 10
"COc1cc(-c2cc3c(N4CCC(c5nc(C)c(-c6ccc(C)c(OC)c6)[nH]5)CC4)ncnc3[nH]2)ccn1 [P-3104, 4-[4-[5-(3-methoxy-4-methyl-phenyl)-4-methyl-1H-imidazol-2-yl]-1-piperidyl]-6-(2-methoxy-4-pyridyl)-7H-pyrrolo[2,3-d]pyrimidine]",0.0001 to 1,< 10
"COc1cc(-c2[nH]c(C3(C)CCN(c4ncnc5[nH]c(C)cc45)CC3)nc2C)ccc1C [P-3105, 4-[4-[5-(3-methoxy-4-methyl-phenyl)-4-methyl-1H-imidazol-2-yl]-4-methyl-1-piperidyl]-6-methyl-7H-pyrrolo[2,3-d]pyrimidine]",0.0001 to 1,< 10
"COc1cc(-c2[nH]c(C3CCN(c4ncnc5[nH]c(-c6ccc(C#N)cc6)cc45)CC3)nc2C)ccc1C [P-3106, 4-[4-[4-[5-(3-methoxy-4-methyl-phenyl)-4-methyl-1H-imidazol-2-yl]-1-piperidyl]-7H-pyrrolo[2,3-d]pyrimidin-6-yl]benzonitrile]",0.0001 to 1,< 10
"Cc1nc(C2CCN(c3ncnc4[nH]c(-c5cnn(C(F)F)c5)cc34)CC2)[nH]c1-c1ccc(F)cc1 [P-3107, 6-[1-(difluoromethyl)pyrazol-4-yl]-4-[4-[5-(4-fluorophenyl)-4-methyl-1H-imidazol-2-yl]-1-piperidyl]-7H-pyrrolo[2,3-d]pyrimidine]",0.0001 to 1,< 10
"COc1ccc(-c2[nH]c(C3CCN(c4ncnc5[nH]c(-c6cnn(C(F)F)c6)cc45)CC3)nc2C)cc1 [P-3108, 6-[1-(difluoromethyl)pyrazol-4-yl]-4-[4-[5-(4-methoxyphenyl)-4-methyl-1H-imidazol-2-yl]-1-piperidyl]-7H-pyrrolo[2,3-d]pyrimidine]",0.0001 to 1,< 10
